# From patent publication US12371454B2, “Cyclic peptide compound having Kras inhibitory action” (priority 2019, dated 2025)
# Starred links: 1 amine or outer side, 2 acyl side, 3 side chain; linkers in the order of their positions; H or OH if unused. Positions of bridges follow the written chain, without caps; N, C: chain ends. Non-standard residues stand in square brackets, D forms with d. Residues, ends and D or L forms follow the SMILES beside them. *: point of attachment. hPhe(3,5-F2-4-CF3) = N[C@@H](CCc1cc(F)c(C(F)(F)F)c(F)c1)C(=O)O; hPhe(3-Cl-4-CF3) = N[C@@H](CCc1ccc(C(F)(F)F)c(Cl)c1)C(=O)O; NMePhe(4-CF3) = CN[C@@H](Cc1ccc(C(F)(F)F)cc1)C(=O)O; hPhe(4-CF3) = N[C@@H](CCc1ccc(C(F)(F)F)cc1)C(=O)O; NMePhe(4-Cl) = CN[C@@H](Cc1ccc(Cl)cc1)C(=O)O; NMedβ3hAla = C[C@H](CC(=O)[*:2])N(C)[*:1]; NMeGly(cPent) = CN[C@H](C(=O)O)C1CCCC1; Pro(4,4-F2) = O=C(O)[C@@H]1CC(F)(F)CN1; NMeCha = CN[C@@H](CC1CCCCC1)C(=O)O; NMeChg = CN[C@H](C(=O)O)C1CCCCC1; NMeF = CN[C@@H](Cc1ccccc1)C(=O)O; NMeD = CN[C@@H](CC(=O)O)C(=O)O; NMeL = CN[C@@H](CC(C)C)C(=O)O; NMehSer = CN[C@@H](CCO)C(=O)O; NMeV = CN[C@H](C(=O)O)C(C)C; d(β3hA) = C[C@@H](N)CC(=O)O; NMeS = CN[C@@H](CO)C(=O)O; dPip = O=C(O)[C@H]1CCCCN1; NMeA = CN[C@@H](C)C(=O)O; Piperidide = C1CCN(*)CC1; Pyrrolidide = C1CCN(*)C1; Ac5c = NC1(C(=O)O)CCCC1; Aze = O=C(O)[C@@H]1CCN1; Thp = NC1(C(=O)O)CCOCC1; Ac4c = NC1(C(=O)O)CCC1; Sar = CNCC(=O)O; Propyl = CCC*
# Target: T1, Kras and SOS1 (biotin-tagged human Kras loaded with GDP, His-tagged human SOS1) (Homo sapiens, UniProt P01116, G12D)
# T1 construct: made in house; host or cells: E. coli (stated for Kras only)
# T1 sequence (P01116 1-188 isoform P01116-2 G12D): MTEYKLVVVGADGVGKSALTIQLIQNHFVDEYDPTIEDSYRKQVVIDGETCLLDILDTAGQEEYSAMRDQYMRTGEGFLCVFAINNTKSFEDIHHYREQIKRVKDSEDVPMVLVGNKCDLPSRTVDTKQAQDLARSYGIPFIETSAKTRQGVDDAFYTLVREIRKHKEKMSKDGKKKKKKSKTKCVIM
# Assay: Protein-protein interaction inhibition between Kras and SOS1 (KrasGl2D-SOS PPI) using AlphaScreen
# Assay type: binding
# Conditions: AlphaScreen; biotin-tagged human Kras loaded with GDP, His-tagged human SOS1; read-out: KRAS G12D-SOS PPI IC50
# Summary of the method: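 AlphaScreen format: Ni donor beads capture His-SOS1, streptavidin acceptor beads capture biotinylated Kras (E. coli-expressed, GDP-loaded post-purification). Excite 680 nm, read 520-620 nm.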
row,Compound,IC50
1,CC[C@H](C)[C@@H]1NC(=O)[C@H](CC(C)C)N(C)C(=O)C[C@@H](C(=O)N(C)C)N(C)C(=O)[C@H](C2CCCC2)N(C)C(=O)[C@H](C)NC(=O)[C@@H](C)NC(=O)[C@H](CCc2ccc(C(F)(F)F)c(Cl)c2)NC(=O)CN(C)C(=O)[C@H](CC2CCCCC2)N(C)C(=O)[C@@H]2CCN2C(=O)[C@H](C)N(C)C1=O [Compound 736] ([NMeL]I[NMeA][Aze][NMeCha][Sar][hPhe(3-Cl-4-CF3)][dA]A[NMeGly(cPent)][NMeD]-NMe2; lactam N-11),37 nM
2,"CC[C@H](C)[C@@H]1NC(=O)[C@H](CC(C)C)N(C)C(=O)C[C@@H](C)N(C)C(=O)[C@H](C2CCCCC2)N(C)C(=O)C2(CCC2)NC(=O)[C@@H]2CC(F)(F)CN2C(=O)[C@H](CCc2cc(F)c(C(F)(F)F)c(F)c2)NC(=O)CN(C)C(=O)[C@H](CC2CCCCC2)N(C)C(=O)CN(C)C(=O)CN(C)C1=O [Compound 738] (cyclo([Ac4c][NMeChg][NMedβ3hAla][NMeL]I[Sar][Sar][NMeCha][Sar][hPhe(3,5-F2-4-CF3)][Pro(4,4-F2)]))",15 nM
3,CCCOC[C@H]1C(=O)N(C)[C@@H](CC(C)C)C(=O)N[C@H](C(=O)N2CCCC2)CC(=O)N(C)[C@@H](C)C(=O)N[C@@H]([C@@H](C)CC)C(=O)N(C)CC(=O)N(C)CC(=O)N(C)[C@@H](Cc2ccc(Cl)cc2)C(=O)N(C)CC(=O)N[C@@H](CCc2ccc(C(F)(F)F)cc2)C(=O)N[C@@H](CC(C)C)C(=O)N1C [Compound 739] ([NMeA]I[Sar][Sar][NMePhe(4-Cl)][Sar][hPhe(4-CF3)]L[NMeS](Propyl)[NMeL]D-Pyrrolidide; lactam N-11),36 nM
4,CC[C@H](C)[C@@H]1NC(=O)[C@H](CC(C)C)N(C)C(=O)C[C@@H](C)N(C)C(=O)[C@H](CC(C)C)N(C)C(=O)C2(CCOCC2)NC(=O)[C@@H]2CCCN2C(=O)[C@H](CCc2ccc(C(F)(F)F)c(Cl)c2)NC(=O)CN(C)C(=O)[C@H](CC2CCCCC2)N(C)C(=O)CN(C)C(=O)CN(C)C1=O [Compound 742] (cyclo(I[Sar][Sar][NMeCha][Sar][hPhe(3-Cl-4-CF3)]P[Thp][NMeL][NMedβ3hAla][NMeL])),17 nM
5,CC[C@H](C)[C@@H]1NC(=O)[C@H](CC(C)C)N(C)C(=O)C[C@@H](C(=O)N2CCCCC2)N(C)C(=O)[C@H](CCOC)N(C)C(=O)C2(CCCC2)NC(=O)[C@@H]2CCCN2C(=O)[C@H](CCc2ccc(C(F)(F)F)c(Cl)c2)NC(=O)CN(C)C(=O)[C@H](CC2CCCCC2)N(C)C(=O)CN(C)C(=O)CN(C)C1=O [Compound 744] ([NMeL]I[Sar][Sar][NMeCha][Sar][hPhe(3-Cl-4-CF3)]P[Ac5c][NMehSer](Me)[NMeD]-Piperidide; lactam N-11),7.5 nM
6,CC[C@H](C)[C@@H]1NC(=O)[C@H](C)N(C)C(=O)C[C@@H](C)NC(=O)[C@H](C(C)C)N(C)C(=O)C2(CCCC2)NC(=O)[C@@H]2CCCN2C(=O)[C@H](CCc2ccc(C(F)(F)F)c(Cl)c2)NC(=O)[C@H]2CCCCN2C(=O)[C@H](CC2CCCCC2)N(C)C(=O)CN(C)C(=O)CN(C)C1=O [Compound 746] (cyclo([Ac5c][NMeV][d(β3hA)][NMeA]I[Sar][Sar][NMeCha][dPip][hPhe(3-Cl-4-CF3)]P)),130 nM
7,"CC[C@H](C)[C@@H]1NC(=O)[C@H](CC(C)C)N(C)C(=O)C[C@@H](C)N(C)C(=O)[C@H](C2CCCCC2)N(C)C(=O)C2(CCC2)NC(=O)[C@@H]2CC(F)(F)CN2C(=O)[C@H](CCc2ccc(C(F)(F)F)c(Cl)c2)NC(=O)CN(C)C(=O)[C@H](Cc2ccc(C(F)(F)F)cc2)N(C)C(=O)CN(C)C(=O)CN(C)C1=O [Compound 750] (cyclo([Ac4c][NMeChg][NMedβ3hAla][NMeL]I[Sar][Sar][NMePhe(4-CF3)][Sar][hPhe(3-Cl-4-CF3)][Pro(4,4-F2)]))",28 nM
8,CC[C@H](C)[C@@H]1NC(=O)[C@H](C)N(C)C(=O)C[C@@H](C)NC(=O)[C@H](CC(C)C)N(C)C(=O)[C@H](Cc2ccccc2)N(C)C(=O)[C@@H]2CCCN2C(=O)[C@H](CCc2ccc(C(F)(F)F)cc2)NC(=O)CN(C)C(=O)[C@H](Cc2ccc(Cl)cc2)N(C)C(=O)CN(C)C(=O)CN(C)C1=O [Compound 751] (cyclo(I[Sar][Sar][NMePhe(4-Cl)][Sar][hPhe(4-CF3)]P[NMeF][NMeL][d(β3hA)][NMeA])),82 nM
9,CC[C@H](C)[C@@H]1NC(=O)[C@H](C)N(C)C(=O)C[C@@H](C(=O)N2CCCCC2)NC(=O)[C@H](C(C)C)N(C)C(=O)[C@H](Cc2ccccc2)N(C)C(=O)[C@H](CC(C)C)N(C)C(=O)[C@H](CCc2ccc(C(F)(F)F)cc2)NC(=O)CN(C)C(=O)[C@H](Cc2ccc(Cl)cc2)N(C)C(=O)CN(C)C(=O)CN(C)C1=O [Compound 752] ([NMeA]I[Sar][Sar][NMePhe(4-Cl)][Sar][hPhe(4-CF3)][NMeL][NMeF][NMeV]D-Piperidide; lactam N-11),200 nM
